# Assay results reported in patent publication US12157755B2, “CD73 inhibitor, preparation method therefor and application thereof” (Abbisko Therapeutics Co., Ltd., priority 2019, dated 2024).
# What was measured:
# [1] = molecular target: T1, CD73 enzymatic activity expressed on the cell surface of MDA-MB-231 cells (Homo sapiens, UniProt P21589); experiment: Inhibition of CD73 enzymatic activity on the cell surface (Cell Titer Glo (CTG) experiment), MDA-MB-231 cells; format: cell-based; details: MDA-MB-231 cells endogenously expressing CD73, AMP, 37° C. for 2 hours, CTG readout; read-out: Cellular activity IC50
# T1 construct: Human breast cancer cells MDA-MB-231 that endogenously express CD73 were used; host or cells: MDA-MB-231
# T1 sequence (P21589 27-549): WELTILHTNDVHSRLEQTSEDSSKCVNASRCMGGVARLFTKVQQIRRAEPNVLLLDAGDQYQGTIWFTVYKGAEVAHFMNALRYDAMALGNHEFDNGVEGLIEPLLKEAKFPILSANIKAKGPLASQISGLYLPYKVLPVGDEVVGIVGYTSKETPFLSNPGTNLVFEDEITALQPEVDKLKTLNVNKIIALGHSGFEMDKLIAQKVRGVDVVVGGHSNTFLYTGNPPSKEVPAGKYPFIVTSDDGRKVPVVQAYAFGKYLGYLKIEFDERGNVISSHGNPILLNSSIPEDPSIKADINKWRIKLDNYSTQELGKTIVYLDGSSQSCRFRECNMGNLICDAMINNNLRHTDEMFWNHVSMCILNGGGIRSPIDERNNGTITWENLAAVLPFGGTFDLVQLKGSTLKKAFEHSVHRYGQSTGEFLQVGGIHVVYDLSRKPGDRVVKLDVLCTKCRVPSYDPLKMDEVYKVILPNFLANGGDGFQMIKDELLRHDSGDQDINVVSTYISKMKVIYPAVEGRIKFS
# Method: Human breast cancer cells MDA-MB-231 that endogenously express CD73 were used in the present invention to evaluate the inhibition of the compound against the CD73 enzymatic activity expressed on the cell surface. The cells used were from the Cell Bank of the Chinese Academy of Sciences. The specific experimental procedures were as follows:
# 1. Before the test, MDA-MB231 cells were seeded to a 96-well plate at 20000 cells/well;
# 2. In RPMI1640, 10% fetal bovine serum (Gibco, 10099-141), placed in a 5% CO2 incubator at 37° C. overnight (the cells were washed three times by using a serum-free RPMI medium right before the test):
# 3. 50 μl of serum-free media containing the compounds at different concentrations were added to the cells and incubated for 15 minutes;
# 4. 25 μL of 1.2 mM AMP was added for incubation at 37° C. for 2 hours, 25 μL of supernatant was then collected from the cells and mix with 25 μL of 100 μM ATP, and then the concentration of AMP in the samples was determined by CTG (Promega, #G7573);
# 5. Then, a reduction ratio of the substrate AMP level in the cell culture supernatant collected after the reaction was quantitatively determined to evaluate the inhibitory effects of the examples of the present invention and the positive compounds against the CD73 enzymatic activity on the cell surface;
# 6. Finally, the concentration of the compound leading to half maximal inhibition of enzymatic activity (IC50) was determined using a four-parameter non-linear logistic model curve fit in Graphpad Prism.
# [2] = molecular target: T2, CD73 (Homo sapiens, UniProt P21589); experiment: In vitro enzymatic activity against CD73 (malachite green test using soluble CD73); format: biochemical; details: soluble CD73 36 ng/mL, 50 μM AMP, 30 minutes at 25° C.
# T2 construct: purchased R&D systems 5795-EN-010
# T2 sequence (P21589 27-547 limits assumed): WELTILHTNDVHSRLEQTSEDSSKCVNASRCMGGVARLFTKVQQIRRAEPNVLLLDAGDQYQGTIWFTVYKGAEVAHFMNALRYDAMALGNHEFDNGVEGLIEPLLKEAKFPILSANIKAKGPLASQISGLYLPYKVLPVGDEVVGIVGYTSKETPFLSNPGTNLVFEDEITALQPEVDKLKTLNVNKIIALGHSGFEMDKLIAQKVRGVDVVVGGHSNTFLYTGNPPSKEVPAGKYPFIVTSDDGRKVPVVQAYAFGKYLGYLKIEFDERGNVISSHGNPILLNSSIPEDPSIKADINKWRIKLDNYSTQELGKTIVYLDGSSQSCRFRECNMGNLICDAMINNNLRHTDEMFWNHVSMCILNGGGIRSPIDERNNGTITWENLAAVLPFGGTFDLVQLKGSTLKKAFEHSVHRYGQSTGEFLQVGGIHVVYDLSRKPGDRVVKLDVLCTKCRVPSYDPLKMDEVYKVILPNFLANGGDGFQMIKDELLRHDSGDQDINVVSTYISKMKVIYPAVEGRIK
# Method: The malachite green test using soluble CD73, which is synthesized in vitro was used in the present invention to determine the characteristics of inhibitory activity of the compounds against CD73. The specific experimental procedures were as following:
# 1. The enzyme reaction in this experiment was carried out in 384-well plates, and CD73 (R&D systems #5795-EN-010) at a concentration of 36 ng/mL, the compounds at different concentrations and 50 μM AMP were incubated for 30 minutes at 25° C. in a 40 uL reaction system (consisting of 25 mM Tris pH 7.5, 5 mM MgCl2, and 0.005% Tween-20);
# 2. Then, 10 μL of malachite green solution (Sigma) was added to each well to terminate the reaction;
# 3. The concentration of resulting inorganic phosphate was determined according to the instructions of the reagent manufacturer;
# 4. The enzymatic activity of CD73 was calculated based on the concentration of the product, and then IC50 values were determined by non-linear regression analysis of the inhibition percentage of the compounds of the present invention at different concentrations.
IC50 [1],IC50 [2],SMILES
5.73 nM,354 nM,"O=P(O)(O)CP(=O)(O)OC[C@H]1C[C@@H](c2ccc3c(N[C@H]4CCc5ccc(C(F)(F)F)cc54)nc(Cl)nn23)[C@H](O)[C@@H]1O [Example 35, (((((1R,2R,3S,4S)-4-(2-chloro-4-(((S)-6-(trifluoromethyl)-2,3-dihydro-1H-inden-1-yl)amino)pyrrolo[2,1-f][1,2,4]triazin-7-yl)-2,3-dihydroxycyclopentyl)methoxy)(hydroxy)phosphoryl)methyl)phosphonic acid]"
0.27 nM,4.08 nM,"O=P(O)(O)CP(=O)(O)OC[C@H]1C[C@@H](c2ccc3c(N[C@@H]4CCc5cc(F)c(F)cc54)nc(Cl)nn23)[C@H](O)[C@@H]1O [Example 32, (((((1R,2R,3S,4S)-4-(2-chloro-4-(((R)-5,6-difluoro-2,3-dihydro-1H-inden-1-yl)amino)pyrrolo[2,1-f][1,2,4]triazin-7-yl)-2,3-dihydroxycyclopentyl)methoxy)(hydroxy)phosphoryl)methyl)phosphonic acid]"
0.256 nM,1.26 nM,"Cc1cc(N[C@@H]2CCc3cc(F)ccc32)c2cnn([C@@H]3O[C@H](COP(=O)(O)CP(=O)(O)O)[C@@H](O)[C@H]3O)c2n1 [Example 24, (((((2R,3S,4R,5R)-5-(4-(((R)-5-fluoro-2,3-dihydro-1H-inden-1-yl)amino)-6-methyl-1H-pyrazolo[3,4-b]pyridin-1-yl)-3,4-dihydroxytetrhydrofuran-2-yl)methoxy)(hydroxy)phosphoryl)methyl)phosphonic acid]"
0.13 nM,0.42 nM,"O=P(O)(O)CP(=O)(O)OC[C@H]1O[C@@H](n2ncc3c(N[C@@H]4CCc5ccccc54)cc(Cl)nc32)[C@H](O)[C@@H]1O [Example 13, (((((2R,3S,4R,5R)-5-(6-chloro-4-(((R)-2,3-dihydro-1H-inden-1-yl)amino)-1H-pyrazolo[3,4-b]pyridin-1-yl)-3,4-dihydroxytetrahydrofuran-2-yl)methoxy)(hydroxy)phosphoryl)methyl)phosphonic acid]"
0.55 nM,5.5 nM,"O=P(O)(O)CP(=O)(O)OC[C@H]1C[C@@H](c2ccc3c(N[C@@H]4CCc5ccccc54)nc(Cl)nn23)[C@H](O)[C@@H]1O [Example 25, (((((1R,2R,3S,4S)-4-(2-chloro-4-(((R)-2,3-dihydro-1H-inden-1-yl)amino)pyrrolo[2,1-f][1,2,4]triazin-7-yl)-2,3-dihydroxycyclopentyl)methoxy)(hydroxy)phosphoryl)methyl)phosphonic acid]"
0.19 nM,3.4 nM,"O=P(O)(O)CP(=O)(O)OC[C@H]1C[C@@H](c2ccc3c(N[C@@H]4CCc5ccc(F)cc54)nc(Cl)nn23)[C@H](O)[C@@H]1O [Example 30, (((((1R,2R,3S,4S)-4-(2-chloro-4-(((R)-6-fluoro-2,3-dihydro-1H-inden-1-yl)amino)pyrrolo[2,1-f][1,2,4]triazin-7-yl)-2,3-dihydroxycyclopentyl)methoxy)(hydroxy)phosphoryl)methyl)phosphonic acid]"
0.22 nM,1.01 nM,"O=P(O)(O)CP(=O)(O)OC[C@H]1C[C@@H](c2ccc3c(N[C@@H]4CCc5cc(F)cc(F)c54)nc(Cl)nn23)[C@H](O)[C@@H]1O [Example 34, (((((1R,2R,3S,4S)-4-(2-chloro-4-(((R)-5,7-difluoro-2,3-dihydro-1H-inden-1-yl)amino)pyrrolo[2,1-f][1,2,4]triazin-7-yl)-2,3-dihydroxycyclopentyl)methoxy)(hydroxy)phosphoryl)methyl)phosphonic acid]"

# More lines, now with the values behind:
SMILES,IC50 [1],IC50 [2]
"O=P(O)(O)CP(=O)(O)OC[C@H]1O[C@@H](n2ncc3c(N[C@H]4CCc5ccccc54)cc(Cl)nc32)[C@H](O)[C@@H]1O [Example 12, (((((2R,3S,4R,5R)-5-(6-chloro-4-(((S)-2,3-dihydro-1H-inden-1-yl)amino)-1H-pyrazolo[3,4-b]pyridin-1-yl)-3,4-dihydroxytetrahydrofuran-2-yl)methoxy)(hydroxy)phosphoryl)methyl)phosphonic acid]",0.26 nM,0.26 nM
"C[C@@H](Nc1cc(Cl)nc2c1cnn2[C@@H]1O[C@H](COP(=O)(O)CP(=O)(O)O)[C@@H](O)[C@H]1O)c1cccc(S(F)(F)(F)(F)F)c1 [Example 9, (((((2R,3S,4R,5R)-5-(6-chloro-4-(((R)-1-(3-(pentafluoro-λ^6-sulfanyl)phenyl)ethyl)amino)-1H-pyrazolo[3,4-b]pyridin-1-yl)-3,4-dihydroxytetrahydrofuran-2-yl)methoxy)(hydroxy)phosphoryl)methyl) phosphonic acid]",1.45 nM,4.8 nM
"C[C@H](Nc1cc(Cl)nc2c1cnn2[C@@H]1O[C@H](COP(=O)(O)CP(=O)(O)O)[C@@H](O)[C@H]1O)c1ccc(S(F)(F)(F)(F)F)cc1F [Example 5, (((((2R,3S,4R,5R)-5-(6-chloro-4-(((S)-1-(2-fluoro-4-(pentafluoro-λ^6-sulfanyl)phenyl)ethyl)amino)-1H-pyrazolo[3,4-b]pyridin-1-yl)-3,4-dihydroxytetrahydrofuran-2-yl)methoxy)(hydroxy)phosphoryl)methyl)phosphonic acid]",0.49 nM,36.5 nM
"C[C@@H](Nc1nc(Cl)nc2c1cnn2[C@@H]1O[C@H](COP(=O)(O)CP(=O)(O)O)[C@@H](O)[C@H]1O)c1ccc(S(F)(F)(F)(F)F)cc1F [Example 3, (((((2R,3S,4R,5R)-5-(6-chloro-4-(((R)-1-(2-fluoro-4-(pentafluoro-λ^6-sulfanyl)phenyl)ethyl)amino)-1H-pyrazolo[3,4-d]pyrimidin-1-yl)-3,4-dihydroxytetrahydrofuran-2-yl)methoxy)(hydroxy)phosphoryl)methyl)phosphonic acid]",0.722 nM,1.6 nM
"O=P(O)(O)CP(=O)(O)OC[C@H]1O[C@@H](n2ncc3c(NCc4ccccc4S(F)(F)(F)(F)F)cc(Cl)nc32)[C@H](O)[C@@H]1O [Example 10, (((((2R,3S,4R,5R)-5-(6-chloro-4-((2-(pentafluoro-λ^6-sulfanyl)phenylmethyl)amino)-1H-pyrazolo[3,4-b]pyridin-1-yl)-3,4-dihydroxytetrahydrofuran-2-yl)methoxy)(hydroxy)phosphoryl)methyl) phosphonic acid]",0.21 nM,3.1 nM
"C[C@@H](Nc1nc(Cl)nc2c1cnn2[C@@H]1O[C@H](COP(=O)(O)CP(=O)(O)O)[C@@H](O)[C@H]1O)c1ccc(S(F)(F)(F)(F)F)cc1 [Example 1, (((((2R,3S,4R,5R)-5-(6-chloro-4-(((R)-1-(4-(pentafluoro-λ^6-sulfanyl)phenyl)ethyl)amino)-1H-pyrazolo[3,4-d]pyrimidin-1-yl)-3,4-dihydroxytetrahydrofuran-2-yl)methoxy)(hydroxy)phosphoryl)methyl)phosphonic acid]",0.373 nM,6.8 nM
